Patent publication US6710060B2, “4-hydroxypiperidine derivatives having antiarrhythmic activity” (Mochida Pharmaceutical Co., Ltd., priority 1999, dated 2004)
Structures can show the parent of a compound that is named as a salt.

SMILES	melting point
CCCCOc1ccc(N(C)CCC2(O)CCN(Cc3cccc(F)c3)CC2)cc1 [Example 29, 4-[2-[N-(4-n-butoxyphenyl)-N-methylamino]ethyl]-1-(3-fluorophenylmethyl)piperidin-4-ol]	46.7 to 47.2 °C
CCCCOc1ccc(N(C)CCC2(O)CCN(Cc3ccc(C)cc3)CC2)cc1 [Example 31, 4-[2-[N-(4-n-butoxyphenyl)-N-methylamino]ethyl]-1(4-methylphenylmethyl)piperidin-4-ol]	73.3 to 75 °C
CCCCOc1ccc(N(C)CCC2(O)CCN(Cc3ccc(F)c(F)c3)CC2)cc1 [Example 30, 4-[2-[N-(4-n-butoxyphenyl)-N-methylamino]ethyl]-1-(3,4-difluorophenylmethyl)piperidin-4-ol]	49.8 to 50.5 °C
CCCCOc1ccc(N(C)CCC2(O)CCN(CC(O)c3ccc(F)cc3)CC2)cc1 (centres unmarked) [Example 55, 4-[2-[N-(4-n-butoxyphenyl)-N-methylamino]ethyl]-1-[2-(4-fluorophenyl)-2-hydroxyethyl]piperidin-4-ol]	92.8 to 94.5 °C
CCCCOc1ccc(N(C)CCC2(O)CCN(CCc3ccc(F)cc3)CC2)cc1 (as salt: hydrochloride) [Example 176, 4-[2-[N-(4-n-butoxyphenyl)-N-methylamino]ethyl]-1-[2-(4-fluorophenyl)ethyl]piperidin-4-ol dihydrochloride]	207 °C (dec.)
CCCCOc1ccc(N(C)CCC2(O)CCN(CC(O)c3ccccc3)CC2)cc1 (centres unmarked) [Example 54, 4-[2-[N-(4-n-butoxyphenyl)-N-methylamino]-ethyl]-1-(2-phenyl-2-hydroxyethyl)piperidin-4-ol]	104 to 104.8 °C
CC(C)Oc1ccc(N(C)CCC2(O)CCN(Cc3ccc(OC(F)(F)F)cc3)CC2)cc1 (as salt: hydrochloride) [Example 236, 4-[2-[N-methyl-N-(4-isopropoxyphenyl)amino]ethyl]-1-(4-trifluoromethoxyphenylmethyl)piperidin-4-ol dihydrochloride]	233.2 to 234.9 °C
CCCCOc1ccc(N(C)CCC2(O)CCN(Cc3ccc(C(F)(F)F)cc3)CC2)cc1 [Example 21, 4-[2-[N-(4-n-butoxyphenyl)-N-methylamino]ethyl]-1-[4-(trifluoromethyl)phenylmethyl]piperidin-4-ol]	77.4 to 78.2 °C
CCCCOc1ccc(N(C)CCC2(OC)CCN(Cc3ccccc3)CC2)cc1 (as salt: hydrochloride) [Example 201, 1-benzyl-4-methoxy-4-[2-[N-(4-n-butoxyphenyl)-N-methylamino]ethyl]piperidine dihydrochloride]	215 °C (dec.)
CCCCOc1ccc(N(C)CC(O)C2(O)CCN(CCc3ccc(F)cc3)CC2)cc1 (centres unmarked) (as salt: hydrochloride) [Example 196, 4-[2-[N-(4-n-butoxyphenyl)-N-methylamino]-1-hydroxyethyl]-1-[2-(4-fluorophenyl)ethyl]piperidin-4-ol dihydrochloride]	191.2 to 198.7 °C
CC(C)Oc1ccc(N(C)CCC2(O)CCN(Cc3ccc(Br)cc3F)CC2)cc1 (as salt: hydrochloride) [Example 240, 1-(4-bromo-2-fluorophenylmethyl)-4-[2-[N-methyl-N-(4-isopropoxyphenyl)amino]ethyl]piperidin-4-ol dihydrochloride]	228.3 to 229.1 °C
CCCCOc1ccc(N(C)CCC2(O)CCN(Cc3ccc4c(c3)OCO4)CC2)cc1 (as salt: hydrochloride) [Example 162, 4-[2-[N-(4-n-butoxyphenyl)-N-methylamino]ethyl]-1-(3,4-methylenedioxyphenylmethyl)piperidin-4-ol dihydrochloride]	211 °C (dec.)
CN(CCC1(O)CCN(Cc2ccccc2)CC1)c1ccc(OC2CCC2)cc1 [Example 17, 1-Benzyl-4-[2-[N-(4-cyclobutoxyphenyl)-N-methylamino]-ethyl]piperidin-4-ol]	68.6 to 69.8 °C
CCCCOc1ccc(N(C)CCC2(O)CCN(Cc3ccc(F)cc3)CC2)cc1 (as salt: hydrochloride) [Example 177, 4-[2-[N-(4-n-butoxyphenyl)-N-methylamino]ethyl]-1(4-fluorophenylmethyl)piperidin-4-ol dihydrochloride]	209 °C (dec.)
CCCCOc1ccc(N(C)CCC2(O)CCN(Cc3ccc(C(=O)OC)cc3)CC2)cc1 [Example 23, 4-[2-[N-(4-n-butoxyphenyl)-N-methylamino]ethyl]-1-(4-methoxycarbonylphenylmethyl)piperidin-4-ol]	82.5 to 82.8 °C
CC(C)Oc1ccc(N(C)CCC2(O)CCN(Cc3ccc(OC(C)C)cc3F)CC2)cc1 [Example 90, 1-(2-fluoro-4-isopropoxyphenylmethyl)-4-[2-[N-methyl-N-(4-isopropoxyphenyl)amino]ethyl]piperidin-4-ol]	65.1 to 66.1 °C
CCCCOc1ccc(N(CCC2(O)CCN(Cc3ccccc3)CC2)C(C)=O)cc1 [Example 56, 4-[2-[N-acetyl-N-(4-n-butoxyphenyl)amino]-ethyl]-1-benzylpiperidin-4-ol]	89.7 to 90.6 °C
CC(C)Oc1ccc(N(C)CCC2(O)CCN(Cc3ccc(F)c(C(F)(F)F)c3)CC2)cc1 [Example 88, 1-[4-fluoro-3-(trifluoromethyl)phenylmethyl]-4-[2-[N-methyl-N-(4-isopropoxyphenyl)amino]ethyl]piperidin-4-ol]	58.8 to 62.8 °C
CC(C)COc1ccc(N(C)CCC2(O)CCN(Cc3ccccc3)CC2)cc1 [Example 16, 1-Benzyl-4-[2-[N-(4-isobutoxyphenyl)-N-methylamino]-ethyl]piperidin-4-ol]	50.6 to 52.5 °C
CC(C)Oc1ccc(N(C)CCC2(O)CCN(Cc3cccs3)CC2)cc1 (as salt: hydrochloride) [Example 254, 4-[2-[N-methyl-N-(4-isopropoxyphenyl)amino]ethyl]-1(2-thienylmethyl)piperidin-4-ol dihydrochloride]	216.5 to 217.5 °C
CCCCCOc1ccc(N(C)CCC2(O)CCN(Cc3ccccc3)CC2)cc1 [Example 15, 1-Benzyl-4-[2-[N-methyl-N-(4-n-pentyloxyphenyl)-amino]ethyl]piperidin-4-ol]	58.5 to 60.3 °C
CCCCOc1ccc(N(C)CCC2(O)CCN(Cc3ccc(Cl)cc3)CC2)cc1 [Example 20, 4-[2-[N-(4-n-butoxyphenyl)-N-methylamino]ethyl]-1-(4-chlorophenylmethyl)piperidin-4-ol]	67.7 to 68.3 °C
CCCCOc1ccc(N(C)CCC2(O)CCN(CCc3ccc(F)cc3F)CC2)cc1 (as salt: hydrochloride) [Example 183, 4-[2-[N-(4-n-butoxyphenyl)-N-methylamino]ethyl]-1-[2-(2,4-difluorophenyl)ethyl]piperidin-4-ol dihydrochloride]	209 °C (dec.)
COC(=O)c1cccc(CN2CCC(O)(CCN(C)c3ccc(OC(C)C)cc3)CC2)c1 [Example 111, 1-[3-(methoxycarbonyl)phenylmethyl]-4-[2-[N-methyl-N-(4-isopropoxyphenyl)amino]ethyl]piperidin-4-ol]	53.8 to 54.7 °C

Now from value to compound:

melting point	SMILES
104.3 to 105 °C	CC(C)Oc1ccc(N(C)CCC2(O)CCN(Cc3ccc(Br)cc3)CC2)cc1 [Example 73, 1-(4-bromophenylmethyl)-4-[2-[N-methyl-N-(4-isopropoxyphenyl)amino]ethyl]piperidin-4-ol]
66.2 to 68 °C	CSc1ccc(CN2CCC(O)(CCN(C)c3ccc(OC(C)C)cc3)CC2)cc1 [Example 109, 4-[2-[N-methyl-N-(4-isopropoxyphenyl)amino]ethyl]-1-[4-(methylthio)phenylmethyl]piperidin-4-ol]
108.1 to 109.5 °C	CC(C)Oc1ccc(N(C)CCC2(O)CCN(Cc3ccc(C#N)cc3)CC2)cc1 [Example 79, 1-(4-cyanophenylmethyl)-4-[2-[N-methyl-N-(4-isopropoxyphenyl)amino]ethyl]piperidin-4-ol]
224.4 to 226.2 °C	CC(C)Oc1ccc(N(C)CCC2(O)CCN(Cc3ccc(Br)cc3)CC2)cc1 (as salt: hydrochloride) [Example 220, 1-(4-bromophenylmethyl)-4-[2-[N-methyl-N-(4-isopropoxyphenyl)amino]ethyl]piperidin-4-ol dihydrochloride]
76.2 to 76.8 °C	CC(C)Oc1ccc(N(C)CCC2(O)CCN(Cc3ccc4ccccc4c3)CC2)cc1 [Example 80, 4-[2-[N-methyl-N-(4-isopropoxyphenyl)amino]ethyl]-1-(2-naphthylmethyl)piperidin-4-ol]
62.5 to 63.1 °C	CC(C)Oc1ccc(N(C)CCC2(O)CCN(Cc3ccc([N+](=O)[O-])cc3)CC2)cc1 [Example 84, 4-[2-[N-methyl-N-(4-isopropoxyphenyl)amino]ethyl]-1-(4-nitrophenylmethyl)piperidin-4-ol]
220.8 to 222.2 °C	CC(C)Oc1ccc(N(C)CCC2(O)CCN(Cc3ccc(C#N)cc3)CC2)cc1 (as salt: hydrochloride) [Example 226, 1-(4-cyanophenylmethyl)-4-[2-[N-methyl-N-(4-isopropoxyphenyl)amino]ethyl]piperidin-4-ol dihydrochloride]
84.7 to 85.1 °C	CC(C)Oc1ccc(N(C)CCC2(O)CCN(Cc3ccc(OC(F)(F)F)cc3)CC2)cc1 [Example 89, 4-[2-[N-methyl-N-(4-isopropoxyphenyl)amino]ethyl]-1-(4-trifluoromethoxyphenylmethyl)piperidin-4-ol]
50.8 to 52.4 °C	COc1ccc(CN2CCC(O)(CCN(C)c3ccc(OC(C)C)cc3)CC2)cc1 [Example 76, 1-(4-methoxyphenylmethyl)-4-[2-[N-methyl-N-(4-isopropoxyphenyl)amino]ethyl]piperidin-4-ol]
60.8 to 61.1 °C	CC(C)Oc1ccc(N(C)CCC2(O)CCN(Cc3cccc(C(F)(F)F)c3)CC2)cc1 [Example 85, 4-[2-[N-methyl-N-(4-isopropoxyphenyl)amino]ethyl]-1-[3-(trifluoromethyl)phenylmethyl]piperidin-4-ol]
69.2 to 70 °C	CC(C)Oc1ccc(N(C)CCC2(O)CCN(Cc3ccc(F)cc3)CC2)cc1 [Example 78, 1-(4-fluorophenylmethyl)-4-[2-[N-methyl-N-(4-isopropoxyphenyl)amino]ethyl]piperidin-4-ol]
